One data set in a line: Acute toxicity (LD50). Type of data set: in vivo. The conditions noted are these: mouse, in vivo, po; one dose, observation through 14 days; probit analysis; read-out: Acute tox. LD50. Here is the method: (§1) The compound to be tested was suspended in 2 percent aqueous Tween 80 (polyoxyethylene sorbitane monolaurate) solution and it was orally administered to the animals through a bougie in a dose of 30 mg/kg when the anticonvulsive activity was tested, while in a dose of 120 mg/kg when the neurotoxic activity was examined. The effect triggered was measured after 1 hour of the administration. Male CFLP (LATI) mice having a weight of 18 to 22 g were used in the tests.
(§2) The toxicity of the compounds was examined after the administration of 1000 mg/kg of the test compound in one dose by an observation through 14 days. The LD50 value (50 percentile lethal dose) was calculated by probite analysis on the basis of the percentile ratio of the animals died within the 14 days.

The subject of data set [1] is Male CFLP (LATI) mice. As to the kind of experiment: Spasm stimulated by Pentetrazole (PTT). Format: in vivo. The conditions noted are these: po; for ED50: Mus musculus, read-out: Anticonvulsive activity PTT TE (tonic extensoric spasm) ED50. On the procedure: as §1
According to the method of G. M. Everett and R. K. Richard [J. Pharmacol. Exp. Ther., 81, 402, (1944)] the test animals were treated with 125 mg/kg of Pentetrazole (pentamethylene tetrazole) after 1 hour of the administration of the compound to be tested. The lack of the clonic spasm (KI) and the tonic extensoric spasm of the lower limbs (TE) was attributed to the protection obtained as a result of the treatment.
PTT: inhibition of the spasm stimulated by pentetrazole
TE: tonic extensoric spasm

For data set [2], the system named is Male CFLP (LATI) mice. Briefly: Maximal electroshock (MES), protection from tonic extensoric spasm of the lower limbs. Format: in vivo. The conditions noted are these: Mus musculus, po; for ED50: read-out: Anticonvulsive activity MES ED50; for inhibition at 30 mg/kg: read-out: MES inhibition (%). Here is the method: as §1
The animals were shocked with a corneal electrode (20 mA, 0.2 sec.) (H. Schachs Elektronik, Marchs, Augstatten, Germany, "schockreizgerat" typ. 207) according to the method of E. A. Swinyard et al. (J. Pharmacol. Exp. Ther. 106, 318 (1952)]. 100% of the control animals responded to the stimulus by the tonic extensoric spasm of the lower limbs. The lack of these occurences was attributed to the protection obtained by the treatment.
MES: maximal electroshock

In data set [3] the test system is Male CFLP (LATI) mice. As to the kind of experiment: Spasm stimulated by strychnine (Str). Type of data set: in vivo. The conditions noted are these: Mus musculus, po, 1 h, read-out: Anticonvulsive activity Str (spasm stimulated by strychnine) ED50. Here is the method:
as §1
According to the method of T. L. Kerley et al. [J. Pharmacol. Exp. Ther. 132, 360 (1961)] the test animals were i. p. treated with 2.5 mg/kg of strychnine after 1 hour of the administration of the active ingredient to be tested.
Str: inhibition of the spasm stimulated by strychnine

The test system of data set [4] is Male CFLP (LATI) mice. As to the kind of experiment: Acute toxicity (LD50). Type of data set: in vivo. The following applies: one dose, observation through 14 days; probit analysis. On the procedure:
as §1, §2

Data set [5] can be described thus: Neurotoxicity (muscle uncoordination), rotating bar (FR). The following applies: mouse, in vivo, po. More on the design: species or system mice (male CFLP (LATI)). Here is the method: as §1
The change of the coordinated muscle motion was examined on a rotating bar according to the method of C. J. Carr [J. Pharmacol. Exp. Ther., 121, 354 (1957)] (diameter: 20 mm, number of revolutions: 12/minute). The trained control animals could stay on the bar for 120 seconds. After 1 hour of the administration of the test compound, it was examined which percent of the animals fell down from the rotating bar within 120 seconds.

The structures appear in SMILES notation. Like-named read-outs stand apart in the source and are kept apart here.

The term LD50 denotes the dose expected to kill half of the subjects tested. The term ED50 denotes the midpoint of the dose-response relation. Turning to `CC(=O)N1O[C@H](C)C(=S)N[C@@H]1c1ccccc1` (relative stereo) [A], the LD50 at 336 h in “Acute toxicity (LD50)” came to 1000 mg/kg. In addition, the results for the median effective dose (ED50) in the data set with Male CFLP (LATI) mice [1] (1 h) and in the data set with Male CFLP (LATI) mice [2] (1 h) were 6.1 mg/kg and 11.9 mg/kg, respectively.
With `CC(=O)N1O[C@H](C)C(=S)N[C@@H]1c1ccccc1C` (relative stereo) [C, 2-Acetyl-3-(2-methylphenyl)-6-methyl-tetrahydro-1,2,4-oxadiazine-5-thion], the median lethal dose (LD50) at 336 h in “Acute toxicity (LD50)” was 1000 mg/kg. The ED50 is 25.6 mg/kg in the data set with Male CFLP (LATI) mice [3], 4.3 mg/kg in the data set with Male CFLP (LATI) mice [1] (1 h) and 10 mg/kg with Male CFLP (LATI) mice [2] (1 h).
In the case of `CC(=O)N1O[C@H](C)C(=S)N[C@@H]1c1ccc(N(C)C)cc1` (relative stereo) [D], in “Acute toxicity (LD50)”, the median lethal dose (LD50) at 336 h is 1000 mg/kg. Besides, in the data set on Male CFLP (LATI) mice [1] (1 h), the ED50 turned out to be 9.9 mg/kg and the “Anticonvulsive activity PTT K1 (clonic spasm) ED50” value (“Anticonvulsive activity PTT K1” for short) was 0 mg/kg. Moreover, in the data set with Male CFLP (LATI) mice [2] (1 h), the ED50 is 30 mg/kg.
For orientation: inhibition means the relative decrease from the control value, in per cent. `CC[C@H]1ON(C(C)=O)[C@@H](c2ccccc2)NC1=S` (relative stereo) [F]: the median lethal dose (LD50) at 336 h in the data set “Acute toxicity (LD50)” came to 1000 mg/kg. For the same compound, in the data set on Male CFLP (LATI) mice [1] (1 h), the 50% effective dose (ED50) was determined as 15.4 mg/kg and the “Anticonvulsive activity PTT K1” value was 0 mg/kg. The inhibition at 30 mg/kg in the data set with Male CFLP (LATI) mice [2] (1 h) amounted to 40%.
Regarding `CC(=O)N1O[C@H](C)C(=S)N[C@@H]1c1ccccc1` [B], the 50% lethal dose (LD50) at 336 h in the data set “Acute toxicity (LD50)” was found to be 1000 mg/kg. In addition, the median effective dose (ED50) in the data set with Male CFLP (LATI) mice [1] (1 h) stood at 12.6 mg/kg; with Male CFLP (LATI) mice [2] (1 h) it was 16.1 mg/kg.
As for `O=C1NC(=O)C(c2ccccc2)(c2ccccc2)N1` [Compound K1, Diphenyl hydantoin, reference compound], the “Acute tox. LD50” value in the data set with Male CFLP (LATI) mice [4] is reported as 278 mg/kg. Besides, the ED50 came out at 9.9 mg/kg in the data set on Male CFLP (LATI) mice [1] (Pentetrazole 125 mg/kg 1 hour after administration, tonic extensoric spasm) and 8.3 mg/kg in the data set with Male CFLP (LATI) mice [2] (1 hour after administration, corneal electrode 20 mA, 0.2 sec). Besides, in data set [5], the TD50 at 1 h is 47.7 mg/kg.
Take `CC(=O)N1OCC(=O)NC1c1ccccc1` (centres unmarked) [Compound K2, 2-Acetyl-3-phenyl-tetrahydro-1,2,4-oxadiazine-5-one, reference compound]: the ED50 came out at 13.4 mg/kg in the data set with Male CFLP (LATI) mice [1] (1 h) and 22.7 mg/kg in the data set on Male CFLP (LATI) mice [2] (1 h). In data set [5] (rotating bar 12/minute, 120 seconds, 1 hour after administration, read-out: Neurotox. FR (rotating bar) ED50), the TD50 at 1 h turned out to be 130 mg/kg.
In the case of `CC(=O)N1OCC(=S)NC1c1ccccc1` (centres unmarked) [E, 2-Acetyl-3-phenyl-tetrahydro-1,2,4-oxadiazine-5-thion], the 50% lethal dose (LD50) at 336 h in “Acute toxicity (LD50)” is 1000 mg/kg. Besides, in the data set with Male CFLP (LATI) mice [1] (1 h), the median effective dose (ED50) is 16.6 mg/kg and the “Anticonvulsive activity PTT K1” value turned out to be 0 mg/kg. For the same compound, the inhibition at 30 mg/kg in the data set on Male CFLP (LATI) mice [2] (1 h) was determined as 10%.

The record behind these values is patent US4755510A, “Novel anticonvulsive tetrahydro-1,2,4-oxadiazine-5-thion derivatives and use” (Richter Gedeon Vegyeszeti Gyar R.T., priority 1984, dated 1988).
